Laboratory results from patent publication US7960408B2, “Quinolinyl and benzothiazolyl modulators” (Amgen Inc., priority 2000, dated 2011).
pIC50: −log10 of the molar value.

Assays:
PPARγ = biological target: T1, PPARγ (Homo sapiens, UniProt P37231); assay: PPARγ ligand binding assay utilizing [3H]-BRL 49653 as the radioligand; conditions: concentration required to reduce by 50% the specific binding of [3H]-BRL 49653
T1 construct: made in house
T1 sequence (P37231 1-505): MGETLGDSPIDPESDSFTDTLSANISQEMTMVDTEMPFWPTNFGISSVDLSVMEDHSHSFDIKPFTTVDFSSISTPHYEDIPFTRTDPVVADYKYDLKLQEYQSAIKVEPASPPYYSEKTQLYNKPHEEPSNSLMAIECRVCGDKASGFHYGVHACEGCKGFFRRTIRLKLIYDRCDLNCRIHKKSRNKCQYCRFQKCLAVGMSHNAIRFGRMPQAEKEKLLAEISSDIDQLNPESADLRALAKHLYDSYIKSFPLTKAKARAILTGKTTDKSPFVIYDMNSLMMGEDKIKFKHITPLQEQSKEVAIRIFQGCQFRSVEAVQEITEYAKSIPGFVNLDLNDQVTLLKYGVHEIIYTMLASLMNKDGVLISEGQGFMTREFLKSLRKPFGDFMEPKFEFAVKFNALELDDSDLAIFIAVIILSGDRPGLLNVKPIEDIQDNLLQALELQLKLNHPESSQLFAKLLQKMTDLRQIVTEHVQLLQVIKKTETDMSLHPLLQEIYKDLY
From the text: The compounds of the present invention can be evaluated for modulation of the PPARγ receptor using assays such as those described in Jiang, et al., Nature 391:82-86 (1998), Ricote, et al., Nature 391:79-82 (1998) and Lehmann, et al., J. Biol. Chem. 270(12): 12953-12956 (1995). Alternatively, the compounds can be evaluated for their ability to displace radiolabeled BRL 49653 from a PPARγ-GST fusion protein as follows:
PPARγ-GST fusion protein (prepared according to standard procedures), [^3H]—BRL 49653 having 50 Ci/mmol specific activity, Polyfiltronics Unifilter 350 filtration plate and glutathione-Sepharose® beads (from Pharmacia: washed twice with 10× binding buffer in which BSA and DTI can be left out).
Binding buffer (10 mM Tris-HCl, pH 8.0, 50 mM KCI, 10 mM DTT, 0.02% BSA and 0.01% NP-40) is added in 80-μL amounts to the wells of the filtration plate. The test compound is then added in 10 μL of DMSO. The PPARγ-GST fusion protein and radiolabeled BRL compound are premixed in binding buffer containing 10 mM DTT and added in 10-μL amounts to the wells of the plate to provide final concentrations of 1 μg/well of PPARγ-GST fusion protein and 10 nM [^3H]—BRL 49653 compound. The plate is incubated for 15 min. Glutathione-agarose bead is added in 50 μL of binding buffer, and the plate is vigorously shaken for one hour. The plate is washed four times with 200 μL/well of binding buffer (without BSA and DTT). The bottom of the plate is sealed and 200 μL/well of scintillation cocktail is added. The top of the plate is then sealed and the radioactivity is determined.
IC50 values are defined as the concentration of test compounds required to reduce by 50% the specific binding of [^3H]—BRL 49653 and are represented by (+) <30 μM; (++) <10 μM; (+++) <1 μM.

pIC50 (PPARγ)	melting point	Compound
> 6.00	219.6 °C	O=S(=O)(Nc1cc(Cl)c(Sc2cnc3ccccc3c2)c(Cl)c1)c1ccccc1Cl [Compound 3]
> 6.00	82 to 84 °C	O=S(=O)(Nc1cc(Cl)c(Oc2nc3ccc(Cl)cc3s2)c(Cl)c1)c1ccc(C(F)(F)F)cc1Cl [Compound 103, 2-Chloro-N-[3,5-dichloro-4-(6-chloro-benzothiazol-2-yloxy)-phenyl]-4-trifluoromethyl-benzenesulfonamide]
> 6.00	228 to 232 °C	O=C(O)c1ccc2ncc(Oc3c(Cl)cc(NS(=O)(=O)c4ccc(Cl)cc4Cl)cc3Cl)cc2c1 [Compound 47, 3-[2,6-Dichloro-4-(2,4-dichloro-benzenesulfonylamino)-phenoxy]-quinoline-6-carboxylic acid]
> 6.00	164 to 165 °C	COc1ccc2nc(Oc3c(Cl)cc(NS(=O)(=O)c4ccc(C(F)(F)F)cc4Cl)cc3Cl)sc2c1 [Compound 106, 2-Chloro-N-[3,5-dichloro-4-(6-methoxybenzothiazol-2-yloxy)-phenyl]-4-trifluoromethyl-benzenesulfonamide]
> 6.00	263 to 266 °C	O=C(O)c1cccc2cc(Oc3c(Cl)cc(NS(=O)(=O)c4ccc(Cl)cc4Cl)cc3Cl)cnc12 [Compound 48, 3-[2,6-Dichloro-4-(2,4-dichloro-benzenesulfonylamino)-phenoxy]-quinoline-8-carboxylic acid]
5.00 to 6.00	73 to 75 °C	O=S(=O)(Nc1cc(Cl)c(Oc2nc3ccc(Cl)cc3s2)c(Cl)c1)c1ccc(Cl)cc1Cl [Compound 104, 2,4-Dichloro-N-[3,5-dichloro-4-(6-chloro-benzothiazol-2-yloxy)-phenyl]benzenesulfonamide]
5.00 to 6.00	–	O=S(=O)(Nc1cc(Oc2nc3cc(Cl)ccc3s2)cc(Oc2nc3cc(Cl)ccc3s2)c1)c1ccc(Cl)cc1Cl [Compound 323, N-[3,5-Bis-(5-chloro-benzothiazol-2-yloxy)-phenyl]-2,4-dichloro-benzenesulfonamide]
> 6.00	–	Cc1ccc2nc(Oc3cc(Cl)cc(NS(=O)(=O)c4cc(C)c(Cl)cc4Cl)c3)sc2c1 [Compound 301, 2,4-Dichloro-N-[3-chloro-5-(6-methyl-benzothiazol-2-yloxy)-phenyl]-5-methyl-benzenesulfonamide]
> 6.00	–	O=S(=O)(Nc1cc(Cl)c(Cc2ccc3ccccc3n2)c(Cl)c1)c1ccc(C(F)(F)F)cc1Cl [Compound 224, 2-Chloro-N-(3,5-dichloro-4-quinolin-2-ylmethyl-phenyl)-4-trifluoromethyl-benzenesulfonamide]
5.00 to 6.00	–	N#Cc1ccc2sc(Oc3cc(Cl)cc(NS(=O)(=O)c4ccc(C(F)(F)F)cc4Cl)c3)nc2c1 [Compound 286, 2-Chloro-N-[3-chloro-5-(5-cyano-benzothiazol-2-yloxy)-phenyl]-4-trifluoromethyl-benzenesulfonamide]
> 6.00	–	Cc1ccc2nc(Nc3c(Cl)cc(NS(=O)(=O)c4ccc(C(F)(F)F)cc4Cl)cc3Cl)sc2c1 [Compound 86]
> 6.00	–	Cc1cc(S(=O)(=O)Nc2cc(Cl)cc(Oc3nc4cc(Cl)ccc4s3)c2)c(Cl)cc1Cl [Compound 285, 2,4-Dichloro-N-[3-chloro-5-(5-chloro-benzothiazol-2-yloxy)-phenyl]-5-methyl-benzenesulfonamide]
4.52 to 5.00	–	Cc1cccc2sc(Oc3c(Cl)cc(NS(=O)(=O)c4ccc(C(F)(F)F)cc4Cl)cc3Cl)nc12 [Compound 505, 2-Chloro-N-[3,5-dichloro-4-(4-methyl-benzothiazol-2-oxy)-phenyl]-4-trifluoromethylbenzenesulfonamide]
5.00 to 6.00	–	CC(=O)c1ccc(S(=O)(=O)Nc2cc(Cl)c(Oc3nc4ccc(Cl)cc4s3)c(Cl)c2)cc1 [Compound 436, 4-Acetyl-N-[3,5-dichloro-4-(6-chloro-benzothiazol-2-yloxy)-phenyl]-benzenesulfonamide]
> 6.00	–	O=S(=O)(Nc1cc(Cl)cc(Cc2nc3cc(Cl)ccc3s2)c1)c1ccc(C(F)(F)F)cc1Cl [Compound 331, 2-Chloro-N-[3-chloro-5-(5-chloro-benzothiazol-2-ylmethyl)-phenyl]-4-trifluoromethyl-benzenesulfonamide]
5.00 to 6.00	–	Cc1cc(S(=O)(=O)Nc2cc(Cl)cc(Oc3nc4c(C)cccc4s3)c2)c(Cl)cc1Cl [Compound 295, 2,4-Dichloro-N-[3-chloro-5-(4-methyl-benzothiazol-2-yloxy)-phenyl]-5-methyl-benzenesulfonamide]
< 4.52	–	COc1ccc(OC)c(S(=O)(=O)Nc2cc(Cl)cc(Oc3nc4cc(Cl)ccc4s3)c2)c1 [Compound 502, N-[3-Chloro-5-(5-chloro-benzothiazole-2-yloxy)-phenyl]-2,5-dimethoxybenzenesulfonamide]
> 6.00	–	O=S(=O)(Nc1cc(Cl)c(Cc2cc3ccccc3cn2)c(Cl)c1)c1ccc(C(F)(F)F)cc1Cl [Compound 237, 2-Chloro-N-(3,5-dichloro-4-isoquinolin-3-ylmethyl-phenyl)-4-trifluoromethyl-benzenesulfonamide]
> 6.00	–	O=S(=O)(Nc1cc(Cl)c(Cc2cnc3ccccc3c2)c(Cl)c1)c1ccc(Cl)cc1Cl [Compound 232, 2,4-Dichloro-N-(3,5-dichloro-4-quinolin-3-ylmethyl-phenyl)-benzenesulfonamide]
4.52 to 5.00	–	O=S(=O)(Nc1cc(Cl)cc(Oc2nc3c(Cl)cccc3s2)c1)c1ccc(Cl)cc1Cl [Compound 291, 2,4-Dichloro-N-[3-chloro-5-(4-chloro-benzothiazol-2-yloxy)-phenyl]-benzenesulfonamide]
> 6.00	–	CCOC(=O)c1ccc2nc(Oc3cc(Cl)cc(NS(=O)(=O)c4ccc(C(F)(F)F)cc4Cl)c3)sc2c1 [Compound 311, 2-[3-Chloro-5-(2-chloro-4-trifluoromethyl-benzenesulfonylamino)-phenoxy]-benzothiazole-6-carboxylic acid ethyl ester]
5.00 to 6.00	–	COc1cccc2sc(Oc3cc(Cl)cc(NS(=O)(=O)c4ccc(Cl)cc4Cl)c3)nc12 [Compound 297, 2,4-Dichloro-N-[3-chloro-5-(4-methoxy-benzothiazol-2-yloxy)-phenyl]-benzenesulfonamide]
> 6.00	–	COc1cccc2sc(Oc3c(Cl)cc(NS(=O)(=O)c4ccc(Cl)cc4Cl)cc3Cl)nc12 [Compound 428, 2,4-Dichloro-N-[3,5-dichloro-4-(4-methoxy-benzothiazol-2-yloxy)-phenyl]-benzenesulfonamide]
> 6.00	–	O=S(=O)(Nc1cc(Cl)c(Oc2nc3ccc(Cl)cc3s2)c(Cl)c1)c1ccc(Br)cc1OC(F)(F)F [Compound 433, 4-Bromo-N-[3,5-dichloro-4-(6-chloro-benzothiazol-2-yloxy)-phenyl]-2-trifluoromethoxy-benzenesulfonamide]
